Laboratory results from patent US20110173718A1, “HERBICIDE TOLERANT PLANTS” (SYNGENTA CROP PROTECTION, INC., priority 2008, published 2011).
Values joined by “and” are separate entries in the source; they are usually repeats but may differ in a detail not shown here. Equal entries are not always repeated.

Assays:
Format in all cases: in vivo
[1] = test system: Chlamydomonas HST T0 tobacco lines; assay: Glasshouse spray test, Chlamydomonas HST transgenic tobacco; parameters: herbicidal damage score: scale not given here; settings: for blch (% bleaching at the meristem relative to control plants) / ht (% height reduction relative to control plants): 100 g, individual T0 lines
From the text: In just the same way the Chlamydomonas HST gene sequence (AM285678) is codon-optimised for tobacco and cloned behind the double Cauliflower mosaic virus 35S promoter and Tobacco mosaic virus enhancer sequences and in front of a nos gene terminator, cloned into a binary vector and transformed into tobacco to produce a population of T0 plants.

[2] = test system: Arabidopsis HST transgenic tobacco plants; assay: Glasshouse spray test, Arabidopsis HST transgenic tobacco; settings: for Damage % 5 DAT / Damage % 10 DAT: 10 g/ha; for Damage % 5 DAT / Damage % 10 DAT / blch (% bleaching at the meristem relative to control plants) / ht (% height reduction relative to control plants): individual T0 lines; for blch (% bleaching at the meristem relative to control plants) / ht (% height reduction relative to control plants): 100 g
From the text: For example the Arabidopsis HST SEQ ID # 11 is cloned behind a double 35s CMV promoter sequence and a TMV translational enhancer sequence and in front of the 3′ terminator from the nos gene. This expression cassette is ligated into pMJB1 (described in WO98/20144) and then into pBIN19 and then transformed into Agrobacterium tuniqfaciens strains LBA4404 prior to plant transformation.
For example, the full length Arabidopsis HST seq ID # 11 is fused to the TMV translational enhancer sequence (SEQ ID #33) by overlapping PCR and, at the same time, 5′ XhoI site and a 3′KpnI site are added by PCR. Site-directed mutagenesis is performed to remove an internal XhoI site. The TMV/HPPD fusion is removed from the pBIN19 by digestion with XhoI/KpnI and is replaced by the TMV/HST fusion (SEQ ID #34). The TMV/HST fusion is now cloned behind a double 35s promoter and in front of the 3′ terminator from the nos gene. Again the modified pBIN19 vector (‘pBinAT HST’) is then transformed into Agrobacterium tumefaciens strain LBA4404.
A master plate of Agrobacterium tumefaciens containing the binary vector pBinAT HST (described above) or analogous binary vector comprising a different HST is used to inoculate 10 ml LB containing 100 mg/1 Rifampicin plus 50 mg/1 Kanamycin using a single bacterial colony. This is incubated overnight at 28° C. shaking at 200 rpm. This entire overnight culture is used to inoculate a 50 ml volume of LA (plus antibiotics). Again this is cultured overnight at 28° C. shaking at 200 rpm. The Agrobacterium cells are pelleted by centrifuging at 3000 rpm for 15 minutes then resuspended in MS medium with 30 g/1 sucrose, pH 5.9 to an OD ([…])=0.6. This suspension is dispensed in 25 ml aliquots into petri dishes.
Clonal micro-propagated tobacco shoot cultures are used to excise young (not yet fully expanded) leaves. The mid rib and outer leaf margins are removed and discarded, the remaining lamina is cut into 1 cm squares. These are transferred to the Agrobacterium suspension for 20 minutes. Explants are then removed, dabbed on sterile filter paper to remove excess suspension then transferred to NBM medium (MS medium, 30 g/1 sucrose, 1 mg/1 BAP, 0.1 mg/1 NAA, pH 5.9, solidified with 8 g/1 Plantagar), with the abaxial surface of each explant in contact with the medium. Approximately 7 explants are transferred per plate, which are then sealed then maintained in a lit incubator at 25° C., 16 hour photoperiod for 3 days.
Explants are then transferred to NBM medium containing 100 mg/1 Kanamycin plus antibiotics to prevent further growth of Agrobacterium (200 mg/1 timentin with 250 mg/1 carbenicillin). Further subculture on to this same medium is then performed every 2 weeks.
As shoots start to regenerate from the callusing leaf explants these are removed to Shoot elongation medium (MS medium, 30 g/1 sucrose, 8 g/1 Plantagar, 100 mg/1 Kanamycin, 200 mg/1 timentin, 250 mg/1 carbenicillin, pH 5.9). Stable transgenic plants readily root within 2 weeks. To provide multiple plants per event to ultimately allow more than one herbicide test per transgenic plant all rooting shoots are micropropagated to generate 3 or more rooted clones.
Putative transgenic plants that are rooting and show vigorous shoot growth on the medium incorporating Kanamycin are analysed by PCR using primers that amplified a 500 bp fragment within the Arabidopsis HST transgene.
Rooted transgenic T0 plantlets are transferred from agar and potted into 50% peat, 50% John Innes soil no 3 or, for example, MetroMix® 380 soil (Sun Gro Horticulture, Bellevue, Wash.) with slow-release fertilizer in 3 inch round or 4 inch square pots and left regularly watered to establish for 8-12 d in the glass house. Glass house conditions are about 24-27° C. day; 18-21° C. night and approximately a 14 h (or longer in UK summer) photoperiod. Humidity is ˜65% and light levels up to 2000 μmol/m^2 at bench level. […]

[3] = test system: Arabidopsis HST transgenic tobacco plants; assay: as above; settings: D2 line (Arabidopsis HST, segregating T1), individual plants

**Q.** For CS(=O)(=O)c1ccc(C(=O)C2C(=O)CCCC2=O)c([N+](=O)[O-])c1 [Mesotrione, mesotrione, reference compound], which herbicidal damage score ([1]; Chlamydomonas HST T0 tobacco events (one value per event), 15 g/ha of mesotrione, 21 DAT) is on record?
**A.** Its herbicidal damage score is 70 and 55 and 85 and 65 and 80 and 75 and 60 and 100.

**Q.** What about the “Damage % 5 DAT” value ([2]; T0 line 332) of the same compound?
**A.** Its value is 30%.

**Q.** And the “Damage % 5 DAT” value ([2]; T0 line 351)?
**A.** Its value is 50%.

**Q.** And the “Damage % 5 DAT” value ([2]; T0 line 367)?
**A.** The value was 25%.

**Q.** What about the “Damage % 5 DAT” value ([2]; T0 line 404) of the same compound?
**A.** The value was 45%.

**Q.** What about the “Damage % 5 DAT” value ([2]; T0 line 426) of the same compound?
**A.** Its value is 45%.

**Q.** What about the “Damage % 10 DAT” value ([2]; T0 line 332) of the same compound?
**A.** Its value is 10%.

**Q.** What about the “Damage % 10 DAT” value ([2]; T0 line 351) of the same compound?
**A.** Its value is 25%.

**Q.** What about the “Damage % 10 DAT” value ([2]; T0 line 367) of the same compound?
**A.** Its value is 10%.

**Q.** What about the “Damage % 10 DAT” value ([2]; T0 line 404) of the same compound?
**A.** The value was 20%.

**Q.** What about the “Damage % 10 DAT” value ([2]; T0 line 426) of the same compound?
**A.** Its value is 20%.

**Q.** And the “ht (herbicidal damage)” value ([2]; Arabidopsis HST T0 tobacco events (one value per event), 15 g/ha of mesotrione, 21 DAT)?
**A.** The value was 80 and 90 and 85 and 70 and 75.

**Q.** How did the “% damage at 7 DAT” value ([3]; 150 gai/ha) turn out when CC(C)C(=O)Oc1c(-c2c(F)ccc(Br)c2Cl)c(=O)n(CC(F)F)c2nccnc12 [Compound 2.30] was run?
**A.** Its value is 65% and 40% (2×) and 50% and 55% and 60% (2×) and 90%.

**Q.** And the “% damage at 7 DAT” value ([3]; 300 gai/ha)?
**A.** The value was 60% (2×) and 80% and 95% and 98% and 70% and 90% (2×).

**Q.** And the “% damage at 7 DAT” value ([3]; 450 gai/ha)?
**A.** Its value is 35% (2×) and 20% and 55% (2×) and 60% and 65% and 70%.

**Q.** What about the “blch (% bleaching at the meristem relative to control plants)” value ([1]; 17 DAT) of the same compound?
**A.** Its value is 0% (14×) and 15% (3×) and 20% and 65% and 10% (2×) and 90% and 75%.

**Q.** What about the “ht (% height reduction relative to control plants)” value ([1]; 17 DAT) of the same compound?
**A.** The value was 15% (2×) and 10% (2×) and 55% (3×) and 25% and 30% (2×) and 0% (2×) and 5% and 8% and 20% (3×) and 40% (2×) and 50% and 35% and 90% and 85%.

**Q.** What about the “blch (% bleaching at the meristem relative to control plants)” value ([1]; 26 DAT) of the same compound?
**A.** Its value is 0% (19×) and 25% and 85% (2×) and 90% (2×).

**Q.** And the “ht (% height reduction relative to control plants)” value ([1]; 26 DAT)?
**A.** Its value is 30% (5×) and 20% (6×) and 70% and 10% and 80% and 35% (2×) and 90% (2×) and 50% and 25% and 75% (2×) and 95% and 60%.

**Q.** What about the “blch (% bleaching at the meristem relative to control plants)” value ([2]; 7 DAT) of the same compound?
**A.** The value was 30% (2×) and 5% (4×) and 10% (3×) and 15% (2×) and 50% and 70% (2×) and 20% (2×) and 0% (5×) and 40% and 100% and 80% and 25%.

**Q.** What about the “ht (% height reduction relative to control plants)” value ([2]; 7 DAT) of the same compound?
**A.** Its value is 30% (4×) and 0% (7×) and 50% and 70% (3×) and 80% (3×) and 40% (2×) and 5% and 10% (2×) and 15% and 20%.

**Q.** And the “blch (% bleaching at the meristem relative to control plants)” value ([2]; 26 DAT)?
**A.** Its value is 25% (2×) and 0% (16×) and 100% and 85% (2×) and 90% (4×).

**Q.** And the “ht (% height reduction relative to control plants)” value ([2]; 26 DAT)?
**A.** Its value is 75% (2×) and 5% (6×) and 15% (2×) and 30% (4×) and 50% (2×) and 60% and 80% and 90% (4×) and 35% and 10% (2×).
